Laboratory results reported in patent US11780845B2 (Relay Therapeutics, Inc., priority 2019, dated 2023).

biological target: FGFR2 (Homo sapiens (Human), UniProt P21802); experiment: FGFR2 Biochemical Caliper Assay; settings: not given
Description: Compounds of the present invention were also tested in a FGFR2 Biochemical Caliper Assay. Compounds were prepared in 10 mM DMSO solution and serially diluted into 11 concentrations by 3-fold dilution. […] 5 uL of ATP solution (100 uM) was added to start the reaction and the plate was incubated for 90 minutes, then 70 uL of stopping buffer (0.5M EDTA) was added to terminate the reaction. Each well was analyzed using EZ reader.

FGFR2, sequence (P21802 22-821): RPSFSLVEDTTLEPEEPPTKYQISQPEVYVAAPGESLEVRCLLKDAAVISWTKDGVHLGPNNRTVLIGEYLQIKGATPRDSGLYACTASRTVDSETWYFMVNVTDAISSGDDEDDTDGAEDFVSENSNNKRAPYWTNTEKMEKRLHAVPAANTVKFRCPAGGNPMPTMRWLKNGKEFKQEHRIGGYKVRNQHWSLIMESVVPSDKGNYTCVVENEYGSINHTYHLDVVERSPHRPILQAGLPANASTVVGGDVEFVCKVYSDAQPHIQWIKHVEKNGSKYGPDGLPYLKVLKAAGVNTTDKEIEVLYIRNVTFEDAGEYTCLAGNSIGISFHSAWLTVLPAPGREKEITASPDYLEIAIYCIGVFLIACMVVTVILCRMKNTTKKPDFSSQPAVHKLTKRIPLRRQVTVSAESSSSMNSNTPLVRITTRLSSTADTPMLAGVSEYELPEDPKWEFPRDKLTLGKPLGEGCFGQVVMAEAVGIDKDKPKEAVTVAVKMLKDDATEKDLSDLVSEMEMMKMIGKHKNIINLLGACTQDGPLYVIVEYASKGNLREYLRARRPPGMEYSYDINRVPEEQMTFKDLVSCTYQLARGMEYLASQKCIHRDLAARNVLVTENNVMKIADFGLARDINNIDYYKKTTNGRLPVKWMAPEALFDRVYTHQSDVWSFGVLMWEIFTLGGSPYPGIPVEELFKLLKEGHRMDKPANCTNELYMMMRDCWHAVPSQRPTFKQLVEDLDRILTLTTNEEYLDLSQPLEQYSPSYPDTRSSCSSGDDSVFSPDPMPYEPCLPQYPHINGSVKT

IC50 [nM]	SMILES
< 100	C=C(C)C(=O)Nc1ccc(-c2c(-c3ccc(Oc4nccc(Cl)n4)c(F)c3)c3c(N)ncnc3n2C)cc1 [Example 530]
< 100	C=C(C)C(=O)Nc1ccc(-c2c(-c3ccc(C(=O)N4CCC[C@H]4C#N)c(F)c3)c3c(N)ncnc3n2C)cc1 [Example 437]
< 100	C=C(C)C(=O)Nc1ccc(-c2c(-c3ccc(C(=O)N4CCCC4)cc3)c3c(N)ncnc3n2C)c(Cl)c1 [Example 434]
1000 to 100000	C=C(C)C(=O)Nc1ccc(-c2c(-c3ccc(Oc4cccc(C)n4)c(CN(C)C)c3)c3c(N)ncnc3n2C)cc1 [Example 475]
250 to 1000	C=CC(=O)N1CCC(n2cc(-c3c(-c4ccc(Oc5ccccn5)c(OC)c4)c4c(N)ncnc4n3C)cn2)CC1 [Example 669]
250 to 1000	C=CC(=O)N1CCC(c2c(-c3ccc(N(C)C4CCOCC4)cc3)c3c(N)ncnc3n2C)C1 (stereo not shown) [Example 791]
1000 to 100000	C=CC(=O)N1CCC(c2c(-c3ccc(Oc4ncccn4)c(OC)c3)c3c(N)ncnc3n2C)C1 (stereo not shown) [Example 687]
< 100	C=C(C)C(=O)Nc1ccc(-c2c(-c3ccc(Oc4cccc(C)n4)cn3)c3c(N)ncnc3n2C)cc1 [Example 460]
< 100	C=C(C)C(=O)Nc1ccc(-c2c(-c3ccc(Oc4nccc(C)n4)c(F)c3)c3c(N)ncnc3n2CC)cc1 [Example 494]
100 to 250	C=CC(=O)N1CC=C(c2c(-c3ccc(Oc4cccc(C)n4)c(OC)c3)c3c(N)ncnc3n2C)C1 [Example 667]
100 to 250	C=CC(=O)N1CCC(c2c(-c3ccc(Oc4ncccn4)cc3)c3c(N)ncnc3n2CC)C1 (stereo not shown) [Example 705]
< 100	C=C(C)C(=O)Nc1ccc(-c2c(-c3ccc(C(=O)N4CCC5CC5C4)cc3)c3c(N)ncnc3n2C)cc1 (stereo not shown) [Example 228]
< 100	C=C(C)C(=O)Nc1ccc(-c2[nH]c3ncnc(N)c3c2-c2ccc(C(=O)N3CCCC3)cc2)cc1 [Example 796]
< 100	C=CC(=O)N1CC[C@@H](c2c(-c3ccc(Oc4ncccn4)cc3)c3c(N)ncnc3n2CC)C1 (single isomer, unassigned) [Example 708]
< 100	C/C=C(\C#N)C(=O)N1CCC(n2cc(-c3c(-c4ccc(Oc5cccc(C)n5)cc4)c4c(N)ncnc4n3C)cn2)CC1 [Example 668]
1000 to 100000	C=C(C)C(=O)Nc1ccc(-c2c(-c3ccc(C(=O)N4CC5(CCCC5)C4)cc3)c3c(N)ncnc3n2C)cc1 [Example 241]
1000 to 100000	C=CC(=O)N1CCC(c2c(-c3ccc(Oc4ncccn4)cc3)c3c(N)ncnc3n2CCN(C)C)C1 (stereo not shown) [Example 707]
250 to 1000	C=CC(=O)N1CCC(c2c(-c3ccc(Oc4ncccn4)cc3)c3c(N)ncnc3n2C)CC1 [Example 696]
< 100	C=CC(=O)N1CCC(n2cc(-c3c(-c4ccc(Oc5cccc(F)n5)cc4)c4c(N)ncnc4n3C)cn2)CC1 [Example 634]
1000 to 100000	C=CC(=O)N1CC[C@@H](c2c(-c3ccc(Oc4ncccn4)cc3)c3c(N)ncnc3n2CCN2CCOCC2)C1 [Example 740]
100 to 250	C=CC(=O)N1CCC(c2c(-c3ccc(Oc4cccc(C)n4)c(OC)c3)c3c(N)ncnc3n2C)CC1 [Example 619]
< 100	C=C(C)C(=O)Nc1ccc(-c2c(-c3ccc(Oc4cccc(C)n4)cc3)c3c(N)ncnc3n2C)c(C)c1 [Example 384]
100 to 250	C=C(C)C(=O)Nc1ccc(-c2c(C3=CC[C@H](Oc4ccn(C)n4)CC3)c3c(N)ncnc3n2C)cc1 (single isomer, unassigned) [Example 550]

test system: SNU16 cells; experiment: SNU16 Cancer Cell Line Proliferation Assay; assay type: cell-based; settings: Homo sapiens; SNU-16 cells
Method in brief: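 Proliferation read-out: CellTiter Glo chemiluminescence after 96 h compound exposure. Test compounds, serially diluted 3-fold over 11 points from a 10 mM DMSO stock, were added to SNU16 cells plated 24 h earlier at 37 degrees.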

IC50 [nM]	SMILES
≤ 100	C=C(C)C(=O)Nc1ccc(-c2c(-c3ccc(Oc4nccc(Cl)n4)c(F)c3)c3c(N)ncnc3n2C)cc1 [Example 530]
≤ 100	C=C(C)C(=O)Nc1ccc(-c2c(-c3ccc(C(=O)N4CCC[C@H]4C#N)c(F)c3)c3c(N)ncnc3n2C)cc1 [Example 437]
≤ 100	C=C(C)C(=O)Nc1ccc(-c2c(-c3ccc(C(=O)N4CCCC4)cc3)c3c(N)ncnc3n2C)c(Cl)c1 [Example 434]
250 to 1000	C=C(C)C(=O)Nc1ccc(-c2c(-c3ccc(Oc4cccc(C)n4)c(CN(C)C)c3)c3c(N)ncnc3n2C)cc1 [Example 475]
250 to 1000	C=CC(=O)N1CCC(n2cc(-c3c(-c4ccc(Oc5ccccn5)c(OC)c4)c4c(N)ncnc4n3C)cn2)CC1 [Example 669]
250 to 1000	C=CC(=O)N1CCC(c2c(-c3ccc(N(C)C4CCOCC4)cc3)c3c(N)ncnc3n2C)C1 (stereo not shown) [Example 791]
1000 to 100000	C=CC(=O)N1CCC(c2c(-c3ccc(Oc4ncccn4)c(OC)c3)c3c(N)ncnc3n2C)C1 (stereo not shown) [Example 687]
≤ 100	C=C(C)C(=O)Nc1ccc(-c2c(-c3ccc(Oc4cccc(C)n4)cn3)c3c(N)ncnc3n2C)cc1 [Example 460]
≤ 100	C=C(C)C(=O)Nc1ccc(-c2c(-c3ccc(Oc4nccc(C)n4)c(F)c3)c3c(N)ncnc3n2CC)cc1 [Example 494]
100 to 250	C=CC(=O)N1CC=C(c2c(-c3ccc(Oc4cccc(C)n4)c(OC)c3)c3c(N)ncnc3n2C)C1 [Example 667]
≤ 100	C=CC(=O)N1CCC(c2c(-c3ccc(Oc4ncccn4)cc3)c3c(N)ncnc3n2CC)C1 (stereo not shown) [Example 705]
≤ 100	C=C(C)C(=O)Nc1ccc(-c2c(-c3ccc(C(=O)N4CCC5CC5C4)cc3)c3c(N)ncnc3n2C)cc1 (stereo not shown) [Example 228]
≤ 100	C=C(C)C(=O)Nc1ccc(-c2[nH]c3ncnc(N)c3c2-c2ccc(C(=O)N3CCCC3)cc2)cc1 [Example 796]
≤ 100	C=CC(=O)N1CC[C@@H](c2c(-c3ccc(Oc4ncccn4)cc3)c3c(N)ncnc3n2CC)C1 (single isomer, unassigned) [Example 708]
1000 to 100000	C/C=C(\C#N)C(=O)N1CCC(n2cc(-c3c(-c4ccc(Oc5cccc(C)n5)cc4)c4c(N)ncnc4n3C)cn2)CC1 [Example 668]
250 to 1000	C=C(C)C(=O)Nc1ccc(-c2c(-c3ccc(C(=O)N4CC5(CCCC5)C4)cc3)c3c(N)ncnc3n2C)cc1 [Example 241]
1000 to 100000	C=CC(=O)N1CCC(c2c(-c3ccc(Oc4ncccn4)cc3)c3c(N)ncnc3n2CCN(C)C)C1 (stereo not shown) [Example 707]
100 to 250	C=CC(=O)N1CCC(c2c(-c3ccc(Oc4ncccn4)cc3)c3c(N)ncnc3n2C)CC1 [Example 696]
≤ 100	C=CC(=O)N1CCC(n2cc(-c3c(-c4ccc(Oc5cccc(F)n5)cc4)c4c(N)ncnc4n3C)cn2)CC1 [Example 634]
1000 to 100000	C=CC(=O)N1CC[C@@H](c2c(-c3ccc(Oc4ncccn4)cc3)c3c(N)ncnc3n2CCN2CCOCC2)C1 [Example 740]
100 to 250	C=CC(=O)N1CCC(c2c(-c3ccc(Oc4cccc(C)n4)c(OC)c3)c3c(N)ncnc3n2C)CC1 [Example 619]
≤ 100	C=C(C)C(=O)Nc1ccc(-c2c(-c3ccc(Oc4cccc(C)n4)cc3)c3c(N)ncnc3n2C)c(C)c1 [Example 384]
≤ 100	C=C(C)C(=O)Nc1ccc(-c2c(C3=CC[C@H](Oc4ccn(C)n4)CC3)c3c(N)ncnc3n2C)cc1 (single isomer, unassigned) [Example 550]
